Source: PMC6484020, “Discovery of selective activators of PRC2 mutant EED-I363M” (Scientific Reports, 2019)
Entries after “also recorded” stand apart in the source; their conditions may differ. Where a SMILES comes first, the peptide text is derived from it. [ ]: non-standard residue; d: D form. Lys(Me3) = C[N+](C)(C)CCCC[C@H](N)C(=O)O

Key:
[1] = biological target: T1, PRC2-EED-I363M (EED/EZH2/SUZ12) (Homo sapiens, UniProt O75530+Q15910, I363M); test: Methyltransferase scintillation proximity assay, H3 (21-44) peptide substrate; type: biochemical; conditions: for effect on catalytic activity of PRC2-EED-I363M: H3 peptide substrate, normalized to activity without compound; for effect on catalytic activity of PRC2-EED-I363M / EC50: compound up to 100 µM; for EC50: 20 nM enzyme, 5 µM 3H-SAM, 2 µM biotin-H3 (21-44), 30 min, 23 °C, read-out: EC50 for activation of PRC2-EED-I363M; for increase of PRC2-EED-I363M kcat values: 20 µM compound, peptide as substrate; for kcat, H3(21–44), PRC2-EED-I363M: in the presence of 20 µM compound, peptide substrate, mean ± SD, n = 3
T1 construct: the full lengths of two components of the PRC2 complex, EED(1–441) and EZH2(1–751); EED(1–441) and EZH2(1–751) were cloned into pFastBac-Dual; made in house; host or cells: Sf9 insect cells (baculovirus co-infection)
T1 sequence (O75530 whole entry I363M): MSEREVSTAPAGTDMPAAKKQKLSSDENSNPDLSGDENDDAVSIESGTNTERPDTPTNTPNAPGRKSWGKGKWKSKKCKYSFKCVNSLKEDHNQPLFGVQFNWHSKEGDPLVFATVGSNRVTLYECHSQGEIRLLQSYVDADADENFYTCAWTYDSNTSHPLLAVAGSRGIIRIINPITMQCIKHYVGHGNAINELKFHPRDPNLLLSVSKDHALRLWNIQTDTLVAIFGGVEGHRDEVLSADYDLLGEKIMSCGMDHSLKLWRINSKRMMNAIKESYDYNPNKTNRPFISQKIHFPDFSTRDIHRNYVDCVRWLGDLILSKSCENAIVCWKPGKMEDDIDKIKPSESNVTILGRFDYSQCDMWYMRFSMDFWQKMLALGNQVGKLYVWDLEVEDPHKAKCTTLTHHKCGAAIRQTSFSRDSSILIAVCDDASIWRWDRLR
T1 sequence (Q15910 1-751 isoform Q15910-2, stated change not applied): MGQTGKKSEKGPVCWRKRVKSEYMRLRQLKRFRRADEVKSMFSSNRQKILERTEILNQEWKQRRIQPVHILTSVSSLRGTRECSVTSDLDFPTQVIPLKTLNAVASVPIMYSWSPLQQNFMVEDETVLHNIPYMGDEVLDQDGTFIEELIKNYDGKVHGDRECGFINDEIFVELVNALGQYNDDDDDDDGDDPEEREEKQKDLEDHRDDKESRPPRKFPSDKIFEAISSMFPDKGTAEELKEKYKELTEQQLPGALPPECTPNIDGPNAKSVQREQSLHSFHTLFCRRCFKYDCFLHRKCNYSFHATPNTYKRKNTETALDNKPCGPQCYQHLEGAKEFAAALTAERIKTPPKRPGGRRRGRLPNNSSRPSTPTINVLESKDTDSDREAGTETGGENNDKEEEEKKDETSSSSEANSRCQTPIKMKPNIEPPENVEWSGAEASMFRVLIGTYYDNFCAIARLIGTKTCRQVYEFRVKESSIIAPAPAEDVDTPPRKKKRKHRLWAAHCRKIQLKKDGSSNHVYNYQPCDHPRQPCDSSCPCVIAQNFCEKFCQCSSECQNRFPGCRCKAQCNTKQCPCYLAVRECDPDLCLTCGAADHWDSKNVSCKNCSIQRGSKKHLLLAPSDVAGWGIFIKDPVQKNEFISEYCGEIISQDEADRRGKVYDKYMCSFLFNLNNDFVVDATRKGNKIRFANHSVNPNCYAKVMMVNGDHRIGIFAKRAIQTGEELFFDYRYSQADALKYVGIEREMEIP
T1 sequence (Q15022 whole entry partner): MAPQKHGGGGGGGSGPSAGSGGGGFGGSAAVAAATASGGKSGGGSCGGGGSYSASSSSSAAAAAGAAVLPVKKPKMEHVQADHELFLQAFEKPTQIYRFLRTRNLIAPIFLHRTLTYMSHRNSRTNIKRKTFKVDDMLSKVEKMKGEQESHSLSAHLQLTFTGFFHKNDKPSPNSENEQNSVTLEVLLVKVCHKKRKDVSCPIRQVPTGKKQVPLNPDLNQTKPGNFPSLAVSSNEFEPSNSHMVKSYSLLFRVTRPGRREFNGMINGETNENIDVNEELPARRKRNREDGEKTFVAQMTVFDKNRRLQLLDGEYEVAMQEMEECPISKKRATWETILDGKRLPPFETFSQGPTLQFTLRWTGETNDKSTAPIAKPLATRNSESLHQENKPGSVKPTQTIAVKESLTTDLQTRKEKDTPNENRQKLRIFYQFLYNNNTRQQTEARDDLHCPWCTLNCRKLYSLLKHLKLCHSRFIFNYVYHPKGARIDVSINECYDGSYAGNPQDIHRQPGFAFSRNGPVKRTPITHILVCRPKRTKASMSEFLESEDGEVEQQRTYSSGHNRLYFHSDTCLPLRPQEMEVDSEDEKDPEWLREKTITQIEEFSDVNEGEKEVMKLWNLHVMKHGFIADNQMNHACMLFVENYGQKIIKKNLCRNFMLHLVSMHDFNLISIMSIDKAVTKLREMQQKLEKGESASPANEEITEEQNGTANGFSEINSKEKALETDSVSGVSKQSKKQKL
Experimental: (§1) Methyltransferase activity assay for WT PRC2 (EED/EZH2/SUZ12) or mutant PRC2-EED-I363M (EED/EZH2/SUZ12) was performed by monitoring the incorporation of tritium-labeled methyl group to lysine 27 of H3 (21–44) peptide using Scintillation Proximity Assay (SPA) or to human nucleosome using a filter-based assay. The enzymatic reactions were performed at 23 °C with 1 hour incubation of 10 µl reaction mixture in 20 mM Tris-HCl, pH 8, 5 mM DTT, and 0.01% Triton X-100 containing 2 µM of ^3H-SAM (Cat.# NET155V250UC; Perkin Elmer; www.perkinelmer.com), 1 µM of biotinylated H3 (21–44), 20 nM PRC2-WT or PRC2-mutant. To stop the reactions, 10 µL of 7.5 M Guanidine hydrochloride was added, followed by 200 µl of buffer (20 mM Tris, pH 8.0), mixed and transferred to a 96-well Streptavidin coated Flash-plate (Cat. # SMP410A001PK, PerkinElmer, http://www.perkinelmer.ca). After mixing, the mixtures in Flash-plate were incubated for 2 hours and the CPM counts were measured using Topcount plate reader (Perkin Elmer, www.perkinelmer.com).
(§2) The CPM counts in the absence of compound for each dataset were defined as 100% activity. In the absence of the enzyme, the CPM counts in each data set were defined as background (0%). All enzymatic reactions were performed in triplicate and the data were analyzed by GraphPad Prism 7 software.
(§3) Supplementary Figure S5. Testing the effect of 9 compounds on activity of WT- and EED-I363M mutant PRC2 complexes. Activities of WT- and mutant-PRC2 in the presence of each compound are normalized to activity of each protein complex in the absence of compound as 100%.
Experiments were performed using 20 nM of each WT or mutant PRC2 trimeric (EED/EZH2/SUZ12) complexes, 2 µM 3H-SAM, 1 µM biotin-H3 (21-44), and up to 100 µM of compounds, 20 mM Tris-HCl pH 8.0, 5 mM DTT and 0.01% Triton X-100.
Supplementary Figure S6. EC50 determination for activators. The EC50 values were determined […]
PRC2 mutant (EED/EZH2/SUZ12), 5 µM 3H-SAM, 2 µM biotin-H3 (21-44) and compound concentrations up to 100 µM. Reactions were incubated for 30 min at 23°C in 20 mM Tris-HCl pH 8.0, 5 mM DTT, 0.01% Triton X-100). Experiments were performed in triplicate. Data shown […]
(§4) Supplementary Figure S7. Determination of kcat values for WT- and EED- I363M mutant trimeric PRC2 complexes in the presence of activators. The kcat values were determined using (A) H3 (21-44) in the presence of 20 µM of each compound or (B) human nucleosome as a substrate in the presence of 200 µM of each compound. Experiments were […]
(§5) performed in triplicate under the following assay conditions:
(§6) (A) Peptide as substrate: 20 nM wildtype or EED-I363M mutant PRC2 (EED/EZH2/SUZ12), 2 µM biotinylated-H3 (21-44) peptide, various concentrations of 3H-SAM (up to 5 µM). […]
(§7) Reactions with both substrates were incubated for 30 min at 23°C in 20 mM Tris-HCl pH 8.0, 5

[2] = biological target: T2, PRC2-WT (EED/EZH2/SUZ12) (Homo sapiens, UniProt O75530+Q15910); test: as above; type: biochemical; conditions: for effect on catalytic activity of PRC2-WT: H3 peptide substrate, compound up to 100 µM, normalized to activity without compound; for kcat, H3(21–44), PRC2-WT: in the presence of 20 µM compound, peptide substrate, mean ± SD, n = 3
T2 construct: the full lengths of two components of the PRC2 complex, EED(1–441) and EZH2(1–751); EED(1–441) and EZH2(1–751) were cloned into pFastBac-Dual; made in house; host or cells: Sf9 insect cells (baculovirus co-infection)
T2 sequence (O75530 whole entry): as the sequence (O75530 whole entry I363M) above, with M363I counted along it
T2 sequence (Q15910 1-751 isoform Q15910-2): as the sequence (Q15910 1-751 isoform Q15910-2, stated change not applied) above
T2 sequence (Q15022 whole entry partner): as the sequence (Q15022 whole entry partner) above
Experimental: as §1, §2, §3
Experiments were performed using 20 nM of each WT or mutant PRC2 trimeric (EED/EZH2/SUZ12) complexes, 2 µM 3H-SAM, 1 µM biotin-H3 (21-44), and up to 100 µM of compounds, 20 mM Tris-HCl pH 8.0, 5 mM DTT and 0.01% Triton X-100. […]
as §4, §5, §6, §7

[3] = biological target: wildtype EED; conditions: cited from earlier work
[4] = biological target: T2, PRC2-WT (EED/EZH2/SUZ12); test: Filter-based methyltransferase assay, human nucleosome substrate; type: biochemical; conditions: for kcat, Human nucleosome, PRC2-WT: in the presence of 200 µM compound, nucleosome substrate, mean ± SD, n = 3
Experimental: (§8) Figure 3 Effect of compound 1, 2 and 4 on activity of PRC2-WT and PRC2-EED-I363M. Effect of the selected compounds on activity of PRC2-WT and PRC2-EED-I363M mutant were assessed using human nucleosome as a substrate. Experiments were performed in triplicate using 200 nM of enzyme, 2 µM 3H-SAM and 5 µM human nucleosome and 200 µM compounds incubated for 30 min at 23 °C in 20 mM Tris-HCl pH 8.0, 5 mM DTT, 0.01% Triton X-100.
(§9) A filter-based assay was used for human nucleosome as a substrate. The reactions were carried out at 23 °C with 0.5 hour incubation of 10 µl reaction mixture in 20 mM Tris-HCl, pH 8, 5 mM DTT, and 0.01% Triton X-100 containing 2 µM of ^3H-SAM (Cat.# NET155V250UC; Perkin Elmer; www.perkinelmer.com), 5 µM of human nucleosome, 200 nM PRC2-WT or PRC2 mutant. To stop the reactions, 50 µl of 10% TCA was added, mixed and transferred to filter-plates (Millipore; Cat.# MSFBN6B10; www.millipore.com). Plates were centrifuged at 2000 rpm (Allegra X-15R - Beckman Coulter, Inc.) for 2 min followed by two additional 10% TCA wash and one ethanol wash (180 µl) followed by centrifugation. Plates were dried and 100 µl MicroO (MicroScint-O; Cat.# 6013611, Perkin Elmer; www.perkinelmer.com) was added to each well, centrifuged and removed. 70 µl of MicroO was added again and CPM was measured using Topcount plate reader.
as §2, §4
(§10) performed in triplicate under the following assay conditions: […]
(§11) (B) Human nucleosome as a substrate: 200 nM wildtype or EED-I363M mutant trimeric PRC2 (EED/EZH2/SUZ12), various concentrations of 3H-SAM (up to 5 µM) and 5 µM human […]
as §7

[5] = biological target: T1, PRC2-EED-I363M (EED/EZH2/SUZ12); test: as above; type: biochemical; conditions: for increase of PRC2-EED-I363M kcat values: human nucleosomes as substrate; for kcat, Human nucleosome, PRC2-EED-I363M: in the presence of 200 µM compound, nucleosome substrate, mean ± SD, n = 3
Experimental: as §8, §9, §2, §4, §10, §11, §7

Row | SMILES | effect on catalytic activity of PRC2-EED-I363M [1] | effect on catalytic activity of PRC2-WT [2] | Kd [3] | EC50 [1] | increase of PRC2-EED-I363M kcat values [1] | kcat, H3(21–44), PRC2-EED-I363M [1] | kcat, H3(21–44), PRC2-WT [2] | kcat, Human nucleosome, PRC2-WT [4] | increase of PRC2-EED-I363M kcat values [5] | kcat, Human nucleosome, PRC2-EED-I363M [5] | effect on PRC2-WT catalytic activity ([4]; human nucleosome as substrate)
1 | CC(C)C[C@H](NC(=O)[C@H](Cc1ccccc1)NC(=O)[C@H](CCCCN(C)C(C)C)NC(=O)[C@@H]1C[C@@H]2CCCC[C@@H]2N1)C(N)=O [UNC5114, reference compound] | minimal effects | antagonized | 0.7 to 1.1 µM | – | – | – | – | – | – | – | –
2 | CC(C)CC(NC(=O)C(Cc1ccccc1)NC(=O)C(CCCC[N+](C)(C)C)NC(=O)C1CC2CCCCC2N1CCCCN)C(N)=O (stereo not drawn) [compound 3] | does not show any activator effect | highest inhibition; also recorded: dose-dependent inhibitory potency | – | – | – | – | – | – | – | – | –
3 | CC(C)C[C@H](NC(=O)[C@H](Cc1ccccc1)NC(=O)[C@H](CCCC[N+](C)(C)C)NC(=O)[C@H](CCCNC(=N)N)NC(=O)[C@@H]1CCCN1)C(N)=O [compound 1] (H-PR[Lys(Me3)]FL-NH2) | significant increase | minimal effects | – | 2.3 ± 0.4 µM | more than 2 fold | 0.00556 ± 0.00028 s⁻¹ | 0.00694 ± 0.00014 s⁻¹ | 0.000472 ± 1.4e-05 s⁻¹ | about 2 fold | 0.000361 ± 2.8e-06 s⁻¹ | –
4 | CC(C)C[C@H](NC(=O)[C@H](Cc1ccccc1)NC(=O)[C@H](CCCC[N+](C)(C)C)NC(=O)[C@H](CCCCN)NC(=O)[C@@H]1CCCN1)C(N)=O [compound 2] (H-PK[Lys(Me3)]FL-NH2) | significant increase | minimal effects | – | 2.4 ± 0.4 µM | more than 2 fold | 0.00583 ± 0.00028 s⁻¹ | 0.00667 ± 0.00014 s⁻¹ | 0.000444 ± 1.1e-05 s⁻¹ | about 2 fold | 0.000417 ± 5.6e-06 s⁻¹ | weak inhibitor
